Consider two molecules from patent US20080249317A1 (APOTEX INC., priority 2007, published 2008).

A short description of data set [1]: Dissolution of 1 gram of crystalline carvedilol phosphate in methanol. The class given is physicochemical. From the text:
The improved solubility by the addition of acetic acid is exemplified by the following results.

The conditions of data set [2]: acidic medium such as gastric fluid; background statement; cited from earlier work.

Structures can show the parent of a compound that is named as a salt.

“carvedilol phosphate [crystalline carvedilol phosphate]”: in data set [1] (containing 2% acetic acid (w/w relative to the carvedilol), solution formed rapidly), the “methanol in which a solution was formed” value worked out at 3 mL. For the same molecule, the “methanol required for dissolution” value in data set [1] (in the absence of acetic acid) was “about 100 mL”.
As to `COc1ccccc1OCCNCC(O)COc1cccc2[nH]c3ccccc3c12` (stereo not drawn) [hydrochloride salt, 1,1-(9H-Carbazol-4-yloxy)-3-[[2-(2-methoxyphenoxy)ethyl]amino]-2-propanol], in data set [2], the solubility result is recorded as “reduced solubility”.
